Test results: patent US20240025906A1 (NEURON23, INC., priority 2022, published 2024)
Read-outs that look alike come from different tables or passages of the source.

Columns and labels:
TYK2 JH2 = target: T1, TYK2 JH2 (Homo sapiens, UniProt P29597); test: TYK2 JH2 binding assay (KINOMEscan KdELECT competitive binding); settings: TYK2 JH2 domain
T1 construct: purchased DiscoverX (KINOMEscan KdELECT service); host or cells: E. coli BL21-derived (T7 phage display) or HEK-293
In short: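 JH2-domain fragment, expressed as T7 phage tag in BL21-derived E. coli or DNA-tagged from HEK-293, competed with test compound against bead-immobilized biotinylated ligand in binding buffer (0.9% DMSO). 1 h shaking at room temperature; bound kinase eluted with 0.5 μM free ligand and quantified by qPCR. Kd from 11-point 3-fold dilutions.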

[1] = tested on: JAK1/TYK2 pSTAT5 (Tyr694/699) in THP-1 cell line; test: IFNa-stimulated JAK1/TYK2 pSTAT5 (Tyr694/699) inhibition cellular assay, AlphaLISA; assay type: cell-based; settings: Homo sapiens, THP-1 cells, AlphaLISA (Assay B)
In short: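 pSTAT5 (Tyr694/699) in lysates quantified by AlphaLISA (615 nm) after 30 min IFNa stimulation (100 ng/mL stock) of THP-1 cells. The cells, 2e4 per well in HBSS, had first been exposed 1 h at 37° C. to eight 6-fold compound dilutions, 10000 down to 0.04 nM final. IC50 fitted by 4PL regression, bottom 0, Hill slope −1.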

[2] = KINOMEscan KdELECT (Assay A), read-out: Biochemical TYK2_DiscoverX_JH2_BND_Kd
[3] = IFNa-stimulated, read-out: Cellular_THP1_IFNa-pSTATS_TYK2
[4] = DiscoverX KINOMEscan KdELECT (Assay A), read-out: Biochemical TYK2_DiscoverX_JH2_BND_Kd
[5] = KINOMEscan KdELECT (Assay A), read-out: Biochemical TYK2_JH2_Kd
[6] = IFNa-stimulated, read-out: Cellular THP1_IFNa-pSTATS_IC50
[7] = IFNa-stimulated pSTAT5 (Tyr694/699), read-out: Cellular_THP1_IFNa-pSTATS_TYK2

T1 sequence (P29597 589-875 limits assumed): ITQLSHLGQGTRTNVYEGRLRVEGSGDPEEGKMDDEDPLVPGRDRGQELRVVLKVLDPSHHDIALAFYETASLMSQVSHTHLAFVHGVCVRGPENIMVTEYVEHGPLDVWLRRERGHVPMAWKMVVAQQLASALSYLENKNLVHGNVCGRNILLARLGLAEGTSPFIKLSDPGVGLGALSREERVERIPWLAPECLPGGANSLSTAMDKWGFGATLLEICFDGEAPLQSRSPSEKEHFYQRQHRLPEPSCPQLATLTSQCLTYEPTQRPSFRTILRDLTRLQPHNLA

Structure (SMILES) | Kd (TYK2 JH2; [2]) | IC50 [1, 3] | Kd (TYK2 JH2; [4]) | other results
[2H]C([2H])([2H])n1ccc(C#Cc2cnc(NC)c3cnc(NC(=O)C4CC4)cc23)n1 [Example 900, N-(5-((1-(methyl-d3)-1H-pyrazol-3-yl)ethynyl)-8-(methylamino)-2,7-naphthyridin-3-yl)cyclopropanecarboxamide] | ≤ 0.1 µM | ≤ 0.5 µM | – | –
CNc1ncc(C#Cc2ccc(OCC(C)(C)O)cc2)c2cc(NC(=O)[C@H]3C[C@H]3C(F)F)ncc12 (single isomer, unassigned) [Example 757] | ≤ 0.1 µM | ≤ 0.5 µM | – | –
CNc1ncc(/C(C)=C/c2ccccc2)c2cc(NC(=O)C3CC3)ncc12 [Example 118, (E)-N-(8-(methylamino)-5-(1-phenylprop-1-en-2-yl)-2,7-naphthyridin-3-yl)cyclopropanecarboxamide] | – | – | – | Kd (TYK2 JH2; [5]): ≤ 0.1 µM; IC50 [1, 6]: ≤ 0.5 µM
O=C(Nc1cc2c(-c3ccccc3)cnc(Cl)c2cn1)C1CC1 [Example 95, N-(8-chloro-5-phenyl-2,7-naphthyridin-3-yl)cyclopropanecarboxamide] | – | – | – | Kd (TYK2 JH2; [5]): 0.1 to 1 µM; IC50 [1, 6]: > 0.5 µM
CCC1CN(c2ccc3nc(-c4cnc(NC)c5cnc(NC(=O)[C@H]6C[C@H]6C)cc45)nn3c2)CCO1 (stereo partly drawn) [Example 1077, (1S,2R)-N-[5-[6-(2-ethylmorpholin-4-yl)-[1,2,4]triazolo[1,5-a]pyridin-2-yl]-8-(methylamino)-2,7-naphthyridin-3-yl]-2-methyl-cyclopropanecarboxamide] | ≤ 0.1 µM | – | – | IC50 [1, 7]: ≤ 0.5 µM
CNc1ncc(-c2nc3ccc(N4CCOCC4)cn3n2)c2cc(NC(=O)[C@H]3C[C@H]3C(F)F)ncc12 (single isomer, unassigned) [Example 534] | – | ≤ 0.5 µM | ≤ 0.1 µM | –
CNc1ncc(C#Cc2ccc3ncccc3c2)c2cc(NC(=O)C3CC3)ncc12 [Example 620, N-(8-(methylamino)-5-(quinolin-6-ylethynyl)-2,7-naphthyridin-3-yl)cyclopropanecarboxamide] | ≤ 0.1 µM | ≤ 0.5 µM | – | –
[2H]C([2H])([2H])Nc1ncc(-c2nc3ccc(C)cn3n2)c2cc(NC(=O)[C@@H]3C[C@@H]3F)ncc12 [Example 578, (1S,2S)-2-fluoro-N-(8-((methyl-d3)amino)-5-(6-methyl-[1,2,4]triazolo[1,5-a]pyridin-2-yl)-2,7-naphthyridin-3-yl)cyclopropane-1-carboxamide] | – | ≤ 0.5 µM | ≤ 0.1 µM | –
CNc1ncc(-c2nc3ccc(N4CCO[C@@H](C)C4)cn3n2)c2cc(NC(=O)[C@H]3C[C@H]3C(F)(F)F)ncc12 (single isomer, unassigned) [Example 541] | – | ≤ 0.5 µM | ≤ 0.1 µM | –
CNc1ncc(CC2CCOC2)c2cc(NC(=O)C3CC3)ncc12 (centres unmarked) [Example 80, N-(8-(methylamino)-5-((tetrahydrofuran-3-yl)methyl)-2,7-naphthyridin-3-yl)cyclopropanecarboxamide] | – | – | – | Kd (TYK2 JH2; [5]): ≤ 0.1 µM; IC50 [1, 6]: > 0.5 µM
CNc1ncc(-c2nc3cc(OC)ccc3o2)c2cc(NC(=O)[C@H]3C[C@H]3CF)ncc12 (single isomer, unassigned) [Example 401] | – | ≤ 0.5 µM | ≤ 0.1 µM | –
CNc1ncc(-c2nc3cc(OC)ccc3o2)c2cc(NC(=O)[C@H]3C[C@H]3CO)ncc12 (single isomer, unassigned) [Example 467] | – | ≤ 0.5 µM | ≤ 0.1 µM | –
CNc1ncc(C#Cc2ccc(OC[C@H](C)OC)cc2)c2cc(NC(=O)C3CC3)ncc12 [Example 704, (S)—N-(5-((4-(2-methoxypropoxy)phenyl)ethynyl)-8-(methylamino)-2,7-naphthyridin-3-yl)cyclopropanecarboxamide] | ≤ 0.1 µM | ≤ 0.5 µM | – | –
CNc1ncc(-n2cccn2)c2cc(NC(=O)C3CC3)ncc12 [Example 57, N-(8-(methylamino)-5-(1H-pyrazol-1-yl)-2,7-naphthyridin-3-yl)cyclopropanecarboxamide] | – | – | – | Kd (TYK2 JH2; [5]): ≤ 0.1 µM; IC50 [1, 6]: > 0.5 µM
CNc1ncc(-c2nc3cc(N4CC5(CCOCC5)C4)ccc3o2)c2cc(NC(=O)C3CC3)ncc12 [Example 934, N-(5-(5-(7-oxa-2-azaspiro[3.5]nonan-2-yl)benzo[d]oxazol-2-yl)-8-(methylamino)-2,7-napththyridin-3-yl)cyclopropanecarboxamide] | ≤ 0.1 µM | ≤ 0.5 µM | – | –
CNc1ncc(C#Cc2ccc(C(F)F)cn2)c2cc(NC(=O)C3CC3)ncc12 [Example 658] | ≤ 0.1 µM | ≤ 0.5 µM | – | –
CNc1ncc(-c2nc3cc(C(=O)NCC4CC4)ccc3o2)c2cc(NC(=O)C3CC3)ncc12 [Example 1101, 2-(6-(cyclopropanecarboxamido)-1-(methylamino)-2,7-naphthyridin-4-yl)-N-(cyclopropylmethyl)benzo[d]oxazole-5-carboxamide] | ≤ 0.1 µM | – | – | IC50 [1, 7]: ≤ 0.5 µM

More lines, main results first:

Kd (TYK2 JH2; [2]) | IC50 [1, 3] | Kd (TYK2 JH2; [4]) | Structure (SMILES) | other results
≤ 0.1 µM | ≤ 0.5 µM | – | CNc1ncc(/C=C/c2ccc3c(c2)OC[C@@H](COC)O3)c2cc(NC(=O)C3CC3)ncc12 (single isomer, unassigned) [Example 791] | –
– | ≤ 0.5 µM | ≤ 0.1 µM | CNc1ncc(-c2nc3ccc(N4CCO[C@@H](C(F)(F)F)C4)cn3n2)c2cc(NC(=O)C3CC3)ncc12 [Example 482, (R)-N-(8-(methylamino)-5-(6-(2-(trifluoromethyl)morpholino)-[1,2,4]triazolo[1,5-a]pyridin-2-yl)-2,7-naphthyridin-3-yl)cyclopropanecarboxamide] | –
≤ 0.1 µM | ≤ 0.5 µM | – | CNc1ncc(C#Cc2ccc(OCC3CN(C(C)=O)C3)cc2)c2cc(NC(=O)C3CC3)ncc12 [Example 679, N-(5-((4-((1-acetylazetidin-3-yl)methoxy)phenyl)ethynyl)-8-(methylamino)-2,7-naphthyridin-3-yl)cyclopropanecarboxamide] | –
– | ≤ 0.5 µM | ≤ 0.1 µM | [2H]C([2H])([2H])Nc1ncc(-c2nc3cc(OCC4CC4)ccc3o2)c2cc(NC(=O)C3CC3)ncc12 [Example 454, N-(5-(5-(cyclopropylmethoxy)benzo[d]oxazol-2-yl)-8-((methyl-d3)amino)-2,7-naphthyridin-3-yl)cyclopropanecarboxamide] | –
– | ≤ 0.5 µM | ≤ 0.1 µM | CNc1ncc(C#Cc2ccc(OC)cc2)c2cc(NC(=O)C3CC3)ncc12 [Example 591, N-(5-((4-methoxyphenyl)ethynyl)-8-(methylamino)-2,7-naphthyridin-3-yl)cyclopropanecarboxamide] | –
≤ 0.1 µM | > 0.5 µM | – | CNc1ncc(-c2ccn(CCOC)n2)c2cc(NC(=O)C3CC3)ncc12 [Example 852, N-(5-(1-(2-methoxyethyl)-1H-pyrazol-3-yl)-8-(methylamino)-2,7-naphthyridin-3-yl)cyclopropanecarboxamide] | –
– | ≤ 0.5 µM | ≤ 0.1 µM | CNc1ncc(-c2nc3cc(OC)ccc3o2)c2cc(Nc3ccc(C(C)(C)O)cn3)ncc12 [Example 375, 2-(6-((5-(5-methoxybenzo[d]oxazol-2-y1)-8-(methylamino)-2,7-naphthyridin-3-yl)amino)pyridin-3-yl)propan-2-ol] | –
≤ 0.1 µM | ≤ 0.5 µM | – | CNc1ncc(C#Cc2ccc(OCC3COC3)cc2)c2cc(NC(=O)C3CC3)ncc12 [Example 677, N-(8-(methylamino)-5-((4-(oxetan-3-ylmethoxy)phenyl)ethynyl)-2,7-naphthyridin-3-yl)cyclopropanecarboxamide] | –
